# Patent publication US9700633B2, “Conjugates of water soluble polymer-amino acid oligopeptide-drug, preparation method and use thereof” (JENKEM TECHNOLOGY CO. LTD., TIANJIN BRANCH, priority 2013, dated 2017)
# Structures can show the parent of a compound that is named as a salt. Where two headings read alike, the source gives them in different places. Marks after values point to notes of the source that are not given here.
# Key:
# [1] = In vitro degradation assay in 0.01 M PBS buffer solution; format: physicochemical
# Method: In order to determine the degradation of the compounds in PBS buffer solution, the compounds DSR1˜6 were dissolved in 0.01 M PBS buffer solution, and were sampled every 30 min.
# [2] = system: human liver cancer plc/prf/5; details: 10 mg/kg (based on rapamycin), i.v., Q2W × 2W
# [3] = system: human colon cancer HCT-116; test: Xenografted tumor of human colon cancer HCT-116 in nude mice; format: in vivo, BALB/cA nude mice; details: iv
# Method: The diameter of subcutaneously xenografted tumor of the nude mice was measured by the caliper.
# [4] = system: human colon cancer HT-29; test: Xenografted tumor of human colon cancer HT-29 in nude mice; format: in vivo, BALB/cA nude mice; details: iv
# [5] = system: human lung cancer A549; test: Xenografted tumor of human lung cancer A549 in nude mice; format: in vivo, BALB/cA nude mice; details: iv
# [6] = system: human ovarian cancer SKOV-3; test: Xenografted tumor of human ovarian cancer SKOV-3 in nude mice; format: in vivo, BALB/cA nude mice; details: iv; for number of animals with vanished tumor: d28, 6 mice per group
# [7] = system: human colon cancer SW-620; test: Xenografted tumor of human colon cancer SW-620 in nude mice; details: 45 mg/kg, qw × 3w, iv
compound,measurement,setting,value
conjugate of methoxy PEG dipeptide acid of glutamic acid (20K)-dasatinib [DSR-1],degradation,[1]; at 60 min,60%
conjugate of methoxy PEG (20K) dipeptide of glutamic acid glycine-rapamycin [LPR-2],Delayed days of tumor growth (to 1000 mm^3),[2],>7 days
same,Tumor volume (average ± standard error),[2]; day 24 after the inoculation (grouping),353 ± 54 mm^3
same,Tumor volume (average ± standard error),[2]; day 27 after the inoculation,404 ± 89 mm^3
same,Tumor volume (average ± standard error),[2]; day 31 after the inoculation,391 ± 72 mm^3
same,Tumor volume (average ± standard error),[2]; day 34 after the inoculation,456 ± 77 mm^3
same,Tumor volume (average ± standard error),[2]; day 38 after the inoculation,536 ± 77 mm^3
"CCc1c2c(nc3ccc(OC(=O)N4CCC(N5CCCCC5)CC4)cc13)-c1cc3c(c(=O)n1C2)COC(=O)[C@]3(O)CC [CPT-11, irinotecan hydrochloride]","Body weight, End","[3]; 15 mg/kg, q3w × 3w",16.6 g
same,RTV (mean ± SD),"[3]; 15 mg/kg, q3w × 3w",2.57 ± 0.66
same,T/C,"[3]; 15 mg/kg, q3w × 3w",39.84%
same,TV (mean ± SD) d0,"[3]; 15 mg/kg, q3w × 3w",129 ± 26 mm^3
same,TV (mean ± SD) d28,"[3]; 15 mg/kg, q3w × 3w",322 ± 37 mm^3
same,"Body weight, End","[3]; 45 mg/kg, qw × 3w",15.1 g
same,RTV (mean ± SD),"[3]; 45 mg/kg, qw × 3w",4.10 ± 0.73
same,T/C,"[3]; 45 mg/kg, qw × 3w",63.56%
same,TV (mean ± SD) d0,"[3]; 45 mg/kg, qw × 3w",126 ± 25 mm^3
same,TV (mean ± SD) d28,"[3]; 45 mg/kg, qw × 3w",512 ± 99 mm^3
same,"Body weight, Beginning","[4]; 15 mg/kg, q3w × 3w",18.2 g
same,"Body weight, End","[4]; 15 mg/kg, q3w × 3w",16.0 g
same,RTV (mean ± SD),"[4]; 15 mg/kg, q3w × 3w","3.79 ± 1.21*^,"
same,T/C,"[4]; 15 mg/kg, q3w × 3w",27.27%
same,TV (mean ± SD) d0,"[4]; 15 mg/kg, q3w × 3w",121 ± 14 mm^3
same,"Body weight, Beginning","[4]; 45 mg/kg, qw × 3w",18.6 g
same,"Body weight, End","[4]; 45 mg/kg, qw × 3w",16.2 g
same,RTV (mean ± SD),"[4]; 45 mg/kg, qw × 3w",8.69 ± 3.43
same,T/C,"[4]; 45 mg/kg, qw × 3w",62.52%
same,TV (mean ± SD) d0,"[4]; 45 mg/kg, qw × 3w",116 ± 13 mm^3
same,"Body weight, Beginning","[5]; 15 mg/kg, q3w × 3w",18.1 g
same,RTV (mean ± SD),"[5]; 15 mg/kg, q3w × 3w","7.67 ± 2.88**^,"
same,T/C,"[5]; 15 mg/kg, q3w × 3w",53.26%
same,TV (mean ± SD) d0,"[5]; 15 mg/kg, q3w × 3w",112 ± 21 mm^3
same,TV (mean ± SD) d28,"[5]; 15 mg/kg, q3w × 3w",831 ± 305 mm^3
same,RTV (mean ± SD),"[5]; 45 mg/kg, qw × 3w",9.87 ± 4.87
same,T/C,"[5]; 45 mg/kg, qw × 3w",68.54%
same,TV (mean ± SD) d0,"[5]; 45 mg/kg, qw × 3w",110 ± 15 mm^3
same,"Body weight, Beginning","[6]; 15 mg/kg, q3w × 3w",18.9 g
same,"Body weight, End","[6]; 15 mg/kg, q3w × 3w",18.0 g
same,RTV (mean ± SD),"[6]; 15 mg/kg, q3w × 3w","7.39 ± 5.22**^,"
same,T/C,"[6]; 15 mg/kg, q3w × 3w",55.69%
same,TV (mean ± SD) d0,"[6]; 15 mg/kg, q3w × 3w",137 ± 33 mm^3
same,TV (mean ± SD) d28,"[6]; 15 mg/kg, q3w × 3w",924 ± 443 mm^3
same,number of animals with vanished tumor,"[6]; 15 mg/kg, q3w × 3w",0
same,"Body weight, Beginning","[6]; 45 mg/kg, qw × 3w",19.7 g
same,RTV (mean ± SD),"[6]; 45 mg/kg, qw × 3w",12.80 ± 3.91
same,T/C,"[6]; 45 mg/kg, qw × 3w",96.46%
same,TV (mean ± SD) d0,"[6]; 45 mg/kg, qw × 3w",136 ± 44 mm^3
same,TV (mean ± SD) d28,"[6]; 45 mg/kg, qw × 3w",1753 ± 878 mm^3
same,number of animals with vanished tumor,"[6]; 45 mg/kg, qw × 3w",0
"conjugate of methoxy PEG dipeptide of glutamic acid and glycine (number-average molecular weight of 20,000)-irinotecan [YNR-1]",RTV (mean ± SD),"[3]; 45 mg/kg, qw × 3w","1.78 ± 0.23**^,##"
same,T/C,"[3]; 45 mg/kg, qw × 3w",27.60%
same,TV (mean ± SD) d0,"[3]; 45 mg/kg, qw × 3w",132 ± 30 mm^3
same,TV (mean ± SD) d28,"[3]; 45 mg/kg, qw × 3w",234 ± 54 mm^3
same,RTV (mean ± SD),"[4]; 45 mg/kg, qw × 3w",5.71 ± 1.21
same,T/C,"[4]; 45 mg/kg, qw × 3w",41.08%
same,TV (mean ± SD) d0,"[4]; 45 mg/kg, qw × 3w",115 ± 25 mm^3
same,TV (mean ± SD) d28,"[4]; 45 mg/kg, qw × 3w, d28",642 ± 105 mm^3
same,RTV (mean ± SD),"[5]; 45 mg/kg, qw × 3w","2.97 ± 1.04*^,#"
same,T/C,"[5]; 45 mg/kg, qw × 3w",20.62%
same,TV (mean ± SD) d0,"[5]; 45 mg/kg, qw × 3w",105 ± 21 mm^3
same,TV (mean ± SD) d28,"[5]; 45 mg/kg, qw × 3w",320 ± 154 mm^3
same,RTV (mean ± SD),"[6]; 45 mg/kg, qw × 3w","0.07 ± 0.01*^,#"
same,T/C,"[6]; 45 mg/kg, qw × 3w",0.53%
same,TV (mean ± SD) d0,"[6]; 45 mg/kg, qw × 3w",135 ± 35 mm^3
same,TV (mean ± SD) d28,"[6]; 45 mg/kg, qw × 3w",1.27 ± 1.98 mm^3
same,number of animals with vanished tumor,"[6]; 45 mg/kg, qw × 3w",4
same,RTV (mean ± SD),[7],"0.003 ± 0.002**^,#"
same,T/C,[7],0.02%
same,TV (mean ± SD) d0,[7]; d0,130 ± 43 mm^3
same,TV (mean ± SD) d28,[7]; d28,0.37 ± 0.29 mm^3
same,number of animals with vanished tumor,"[7]; d28, 6 mice per group",2
conjugate of methoxy PEG dipeptide of glutamic acid alanine (20K)-dasatinib [DSR-3],degradation,[1]; at 150 min,50%
